Source: patent US12629390B2, “Stabilized amorphous calcium carbonate for treatment of neurological, muscular and infertility diseases or conditions” (AMORPHICAL LTD., priority 2016, dated 2026)

Assays:
[1] = test system: spinal cord-dorsal root ganglia (SC-DRG) slices; experiment: nerve fiber sprouting from SC-DRG co-cultures; type: cell-based, rat; details: calcium preparation at Ca2+ 2 mM; after 4 days of cultivation; portion of explants (out of 6)
Method: Neural and Vascular Reconstruction Gel ([…] Labs proprietary) is composed of two main components: high molecular hyaluronic acid (HA, 3×10^6 Da, BTG, Israel) and laminin (Sigma). […] The gel has the texture of a viscous liquid, it adheres easily and successfully the embedded cells or explants to the plastic or glass substratum, and enabled nerve fiber outgrowth in a 3D pattern. All the experiments were carried out and authorized by the local ethics committee recognized by the Israeli authorities for animal experimentation. Stationary organotypic cultures of dorsal root ganglia (DRG) and spinal cord (SC) as well as cultures of dissociated brain cells were prepared from rat fetuses (15 days of gestation, Lewis inbred, Harlan, Israel). Immediately after dissection, the isolated tissues were cut with a […] tissue chopper into small slices (of 400 μm thickness). In these studies, two tissue culture strategies were used. […] In the second method, the tissue slices were further dissociated with a trypsin-EDTA solution for 30 min, and washed with a culture medium. Subsequently, the dissociated cells were added to a suspension of chitosan powder or gastrolith powder (micro carriers, MCs) and incubated in suspension at 37° C. for 4 days. […] Calcium source were as following: ACC-Etidronic Acid (ACC-ET) (fresh suspension); ACC-Phosphoserine (ACC-PS) (fresh suspension); Gastrolith (dissolved with 0.1 M HCl and then neutralized with NaOH 1M); gastrolith powder; […] The cultures were monitored by daily phase contrast microscopic observations starting from 24 hours after setting the cultures onward. Suspensions of fresh ACC preparations consisted of particles forming a stable suspension. The gastrolith is a natural ACC isolated from crabs, and can be purchased only as a dry powder. In this form, its other characteristic components (such as calcium ions and proteins) are not available to the cells. In order to increase their bioavailability, the gastrolith powder was dissolved in 0.1 M HCl (which mimics the acidity which exists in the stomach) and then neutralized with 1M NaOH. […] The specimens were then incubated with rabbit anti-neurofilament antibodies (NF, Novus Biologicals, 1:500) to visualize the neurite outgrowth. […] Finally, the samples were rinsed again with wash buffer, and mounted with mounting medium (Immco Diagnostic, USA).

MBA-13 cells = experiment: Alizarin red staining of MBA13 stem cells differentiating to osteoblasts; type: cell-based; details: 10 days in culture
Method: Two days following thawing, MBA-13 cells (received from Prof. Dov Zipori, Weizmann Institute of Science) were re-suspended in recombinant trypsin solution and seeded on a 96 wells plate, (Day “0”) in a concentration of 1×10^4 cells/well using MSC Nutristem® XF basal medium (Biological Industries, cat #05-200-1A) supplemented with Mesenchymal stem cells (MSC) supplement mix medium (Biological Industries cat #05-201-06) in a ratio of 50 ml:300 μl. […] Row G in the plate was treated with MSCgo medium (total 1.488 mM calcium). Row H of the plate was treated with MSC NutriStem® XF nutrient basal medium+supplement mix (total 1.488 mM calcium). On day 4, medium was exchanged with fresh preparations of ACC. […] Once the cells were fixated, two types of staining reagents were used to stain extracellular calcium or bone deposition in order to estimate osteoblasts functionality: (i) Alizarin red (Sigma A55333) and (ii) Alkaline Phosphatase (DAKO BCIP/NBT substrate system […]) as following: Alizarin red staining procedure-pH was adjusted to 4.2. Cells were washed twice with PBS and fixed with cold methanol for 5 minutes and then washed again with PBS. […] Following staining incubation, the samples were washed with water 2-3 times to remove unspecific staining.

[Ca+2].[Cl-].[Cl-] [CaCl2, calcium chloride]
Cultures with axonal regeneration (%) [1]: 50% | Alizarin Red staining signal (MBA-13 cells; additional 1 mM calcium in MSCgo rapid osteogenic medium, gelatin coating): weak signal | large calcium deposition plaques (MBA-13 cells; additional 1 mM calcium): not observed
